Measured values taken from patent publication US20240398889A1, “NUTRACEUTICAL COMPOSITION AND METHOD FOR THE PROTECTION OF HUMAN ARTERIAL ENDOTHELIAL CELLS FROM ENDOTHELIAL CELL DYSFUNCTION” (K.L.R.M., LLC, priority 2022, published 2024).

Key:
[1] = system: human umbilical arterial endothelial cells (HUAEC); test: Intracellular NO by Muse Nitric Oxide Kit (DAX-J2 Orange); type: cell-based; details: L-NAME added to COMP-4, 24 hours
Description: To corroborate the results obtained by flow cytometry, another system for detecting intracellular NO was used, the Muse® Nitric Oxide Kit (cat #MCH100112, Luminex, Austin, TX). HUAEC were seeded at 1.0×10^6 cells/ml in T25 flasks, treated with vehicle, COMP-4 with or without L-NAME, or LPS (positive control), and incubated for 24 hours. Cells were then suspended in assay buffer at 10^6 cells/ml. 100 μL of working solution consisting of the Muse Nitric Oxide Reagent (DAX-J2 Orange) was added to 10 μL of cells in suspension. Samples were incubated for 30 minutes in a 37° C. incubator with 5% CO2. After the incubation, 90 μL of the Muse 7-AAD working solution (dead cell marker) was added to each tube and incubated at room temperature for 5 min, protected from light. Intracellular NO was measured using the Guava® Muse Cell Analyzer, calibrated with negative and positive controls. Generated plots were divided into quadrants of nitric oxide positivity (+or −) and dead cells (+or −). From each plot, the lower-right quadrant of nitric oxide (+) and dead cell marker (−) was used to express intracellular NO results as the percent positive NO in live cells, which was compared between different treatments.

[2] = system: human umbilical arterial endothelial cells (HUAEC); test: cGMP expression by colorimetric ELISA in HUAEC; type: cell-based; details: 24 hours; for reduction of cGMP expression compared to COMP-4 incubation alone: inhibitor co-incubated with COMP-4 0.69 mg/ml; for reduction of cGMP expression compared to COMP-4 incubation alone / cGMP expression, change vs control: L-NIL 2 μM; for cGMP expression, change vs control: agent alone, IBMX 0.4 mM
Description: Cells were then scraped, homogenized by pipetting, and centrifuged at 1,000 g for 10 minutes. […] The enzymatic reaction product was determined by spectrophotometry at 405 nm absorbance and expressed as pmol/mg protein.

Compound	reduction of DAX-J2 Orange live cells compared to COMP-4 alone [1]	reduction of cGMP expression ([2]; inhibitor alone, L-NAME 3 μM, vs control)	reduction of cGMP expression compared to COMP-4 incubation alone ([2]; L-NAME 3 μM)	cGMP expression, change vs control [2]
COC(=O)[C@@H](N)CCCNC(=N)N[N+](=O)[O-] [L-NAME, L-N^G-Nitro arginine methyl ester]	46%	40%	57%	
CC(=N)NCCCC[C@H](N)C(=O)O.Cl [L-NIL, N^6-(1-Iminoethyl)-lysine, hydrochloride]			44%	no inhibition of cGMP expression
CC(C)Cn1c(=O)n(C)c(=O)c2[nH]cnc21 [IBMX, 3-isobutyl-1-methylxanthine]				increase in cGMP expression
